{"source": "ChEMBL document CHEMBL1201862", "about": "“PubChem BioAssay data set” (2004)", "key": {"[1]": {"system": "Vero", "test": "cells", "format": "functional, cell-based", "conditions": "Chlorocebus sabaeus"}, "[2]": {"system": "BJ", "test": "cells", "format": "functional, cell-based", "conditions": "Homo sapiens"}, "[3]": {"test": "DRD fibroblast viability loss – cell-based, non-viral oncogenic, luminescence, dose response (AID 1934)", "format": "functional", "conditions": "Homo sapiens"}, "[4]": {"system": "Vero", "test": "mammalian cell viability reduction – secondary assay, cytotoxicity control for West Nile virus antiviral project, dose response (AID 1650)", "format": "functional", "conditions": "Chlorocebus sabaeus"}, "[5]": {"system": "BJ", "test": "BJ-TERT-LT-ST fibroblast viability loss – cell-based, RAS-independent, luminescence, dose response (AID 1935);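 further: BJ fibroblasts immortalized with TERT plus LT and ST oncogenes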", "format": "functional", "conditions": "Homo sapiens"}, "[6]": {"system": "Vero", "test": "cells", "format": "functional", "conditions": "Chlorocebus sabaeus"}, "[7]": {"system": "BJ", "test": "BJ-TERT fibroblast viability loss – cell-based, RAS-independent, luminescence, dose response (AID 1933)", "format": "functional", "conditions": "Homo sapiens"}, "[8]": {"test": "fluconazole-exposed Candida albicans growth modulators – fluorescence, retest, confirmation (AID 2467)", "format": "functional, cell-based"}, "[9]": {"target": "Albumin (Bos taurus, UniProt P02769)", "sequence (P02769 whole entry)": "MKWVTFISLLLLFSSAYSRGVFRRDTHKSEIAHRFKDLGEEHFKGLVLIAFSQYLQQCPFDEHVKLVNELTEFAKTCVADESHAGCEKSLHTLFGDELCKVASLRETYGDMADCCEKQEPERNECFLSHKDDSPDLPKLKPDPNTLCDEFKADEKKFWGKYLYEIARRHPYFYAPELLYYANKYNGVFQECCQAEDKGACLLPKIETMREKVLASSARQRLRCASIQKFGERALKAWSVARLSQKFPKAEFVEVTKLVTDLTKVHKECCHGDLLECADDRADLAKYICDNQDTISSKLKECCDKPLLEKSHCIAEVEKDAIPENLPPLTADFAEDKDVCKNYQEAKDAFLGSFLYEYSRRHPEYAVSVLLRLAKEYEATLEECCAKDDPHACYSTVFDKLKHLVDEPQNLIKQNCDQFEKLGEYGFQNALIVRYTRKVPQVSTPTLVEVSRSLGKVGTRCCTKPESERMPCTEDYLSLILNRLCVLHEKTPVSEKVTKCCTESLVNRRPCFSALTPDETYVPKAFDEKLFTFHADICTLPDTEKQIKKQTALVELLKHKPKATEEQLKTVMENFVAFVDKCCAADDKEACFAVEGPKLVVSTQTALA", "test": "Counterscreen for inhibitors of T-cell receptor (TCR)-CD3 interaction: Fluorescence-based biochemical high throughput dose response assay to identify inhibitors of T-cell receptor (TCR)-CD3 interaction using a TAMRA-labeled BSA probe.", "format": "functional"}, "[10]": {"test": "NIH-3T3 fibroblast cytotoxicity, dose response, cytotoxicity control, cell-based, fluorescence, Alamar Blue, secondary assay (AID 2327);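 further: NIH-3T3 mouse fibroblasts cultured with fluconazole at 8 µg/mL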", "format": "functional"}, "[11]": {"target": "Glyceraldehyde-3-phosphate dehydrogenase (Homo sapiens, UniProt P04406)", "sequence (P04406 whole entry)": "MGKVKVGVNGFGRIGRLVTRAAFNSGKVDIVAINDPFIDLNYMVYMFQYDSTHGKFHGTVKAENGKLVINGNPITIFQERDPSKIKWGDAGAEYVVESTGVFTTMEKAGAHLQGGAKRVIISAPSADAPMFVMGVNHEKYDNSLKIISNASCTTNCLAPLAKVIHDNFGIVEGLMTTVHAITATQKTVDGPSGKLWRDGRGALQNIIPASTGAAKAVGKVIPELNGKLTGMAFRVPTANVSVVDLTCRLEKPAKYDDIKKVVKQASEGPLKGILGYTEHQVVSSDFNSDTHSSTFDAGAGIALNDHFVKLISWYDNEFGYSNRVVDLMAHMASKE"}, "[12]": {"system": "Streptococcus", "test": "GAS UMAA2166 growth inhibition – luminescence, BacTiterGlo, counter-screen for streptokinase expression inhibitor project, dose response (AID 1915);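 further: potency for reduction of bacterial viability or growth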", "format": "functional, organism-based"}, "[13]": {"system": "Streptococcus sp. 'group A'", "test": "Streptococcus pyogenes SK(-)GAS viability under kanamycin – luminescence, BacTiterGlo, confirmation, counter-screen for streptokinase expression inhibitor project, dose response (AID 1900)", "format": "functional, organism-based"}, "[14]": {"target": "T1, Streptokinase A (Streptococcus pyogenes serotype M1, UniProt P10520)", "T1 sequence (P10520 whole entry)": "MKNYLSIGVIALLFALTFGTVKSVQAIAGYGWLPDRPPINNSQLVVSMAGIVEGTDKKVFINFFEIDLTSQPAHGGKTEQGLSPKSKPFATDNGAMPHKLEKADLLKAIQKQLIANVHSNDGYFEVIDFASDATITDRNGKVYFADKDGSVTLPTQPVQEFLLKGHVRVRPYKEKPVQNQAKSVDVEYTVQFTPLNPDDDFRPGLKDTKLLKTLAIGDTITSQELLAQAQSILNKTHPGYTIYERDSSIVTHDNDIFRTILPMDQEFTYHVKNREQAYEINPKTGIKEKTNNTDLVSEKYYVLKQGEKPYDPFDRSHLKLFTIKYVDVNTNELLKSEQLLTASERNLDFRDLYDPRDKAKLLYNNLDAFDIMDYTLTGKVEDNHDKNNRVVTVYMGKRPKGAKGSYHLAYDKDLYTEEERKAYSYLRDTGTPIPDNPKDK", "test": "viability-normalized secreted streptokinase activity reduction – plasminogen activation absorbance, OD405, dose response (AID 1914);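 further: secreted streptokinase activity via plasminogen activation per viability signal from cell pellet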", "format": "functional, Streptococcus pyogenes M1 GAS"}, "[15]": {"test": "cells", "format": "functional, cell-based"}, "[16]": {"test": "NIH3T3 cell viability loss – ATP luminescence, mouse fibroblasts, counter-screen, dose response (AID 2010);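 further: cells exposed to compound for about 90 hours before reading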", "format": "functional, cell-based"}, "[17]": {"test": "cells", "format": "functional, cell-based", "remark": "listed apart in the source"}, "[18]": {"test": "Trypanosoma cruzi growth suppression in host cells – NIH3T3 host cells, beta-gal luminescence, confirmation (AID 2044);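 further: intracellular parasites grown in NIH/3T3 mouse fibroblasts as host cells; luminescent beta-galactosidase reporter signal from transgenic T. cruzi replicating inside host cells; inhibitors lower the luminescence signal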", "format": "functional, cell-based"}, "[19]": {"system": "INS1", "test": "INS-1E survival protection against cytokine death – cell-based, luminescence, retest, dose response (AID 449756);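 further: cell death triggered by IL-1 beta plus TNF-alpha plus IFN-gamma mixture; protective hits raise ATP signal compared with cytokine alone wells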", "format": "functional", "conditions": "Rattus norvegicus"}}, "note": "The source made the active and inactive calls. For most assays here, no stated cut-off is given here; in the data, actives have a measured EC50 and inactives only a lower limit."}
{"smiles": "CCc1cc(C(=O)N2CCc3c([nH]c4ccccc34)C2c2ccc(OC)cc2F)no1", "note": "(stereo unspecified)", "values": [{"measurement": "IC50", "setting": "[1]", "value": "1.74 µM (active)"}, {"measurement": "EC50", "setting": "[2]", "value": "> 150 µM (not active)"}, {"measurement": "EC50", "setting": "[3]", "value": "> 150 µM (inconclusive)"}, {"measurement": "CC50", "setting": "[4]", "value": "24.4 µM (active)"}, {"measurement": "EC50", "setting": "[5]", "value": "> 150 µM (not active)"}, {"measurement": "CC50", "setting": "[6]", "value": "20 µM (active)"}, {"measurement": "EC50", "setting": "[7]", "value": "28.3 µM (active)"}]}
{"smiles": "COc1ccc(C)cc1NC(=O)NNC(=O)c1cc2ccccc2cc1O", "values": [{"measurement": "EC50", "setting": "[8]", "value": "> 38 µM (not active)"}, {"measurement": "IC50", "setting": "[9]", "value": "> 94.1 µM (inactive)"}, {"measurement": "EC50", "setting": "[10]", "value": "22.7 µM (inconclusive)"}]}
{"smiles": "O=C1C(Cl)=C(N2CCN(Cc3ccccc3)CC2)C(=O)N1c1ccc(C(F)(F)F)cc1", "values": [{"measurement": "IC50", "setting": "[11]", "value": "> 50 µM (inconclusive)"}]}
{"smiles": "O=C(NC(=S)NNC(=O)c1cccs1)c1ccccc1", "values": [{"measurement": "IC50", "setting": "[9]", "value": "> 94.1 µM (inactive)"}, {"measurement": "EC50", "setting": "[12]", "value": "21.2 µM (active)"}, {"measurement": "EC50", "setting": "[13]", "value": "3.79 µM (active)"}, {"measurement": "EC50", "setting": "[14]", "value": "> 150 µM (not active)"}]}
{"smiles": "Cn1c(N=NO)nc2ccccc21", "values": [{"measurement": "EC50", "setting": "[15]", "value": "> 350 µM (not active)"}, {"measurement": "EC50", "setting": "[16]", "value": "< 6 µM (inconclusive)"}, {"measurement": "EC50", "setting": "[17]", "value": "11.3 µM (active)"}, {"measurement": "EC50", "setting": "[18]", "value": "778 nM (active)"}, {"measurement": "EC50", "setting": "[10]", "value": "> 150 µM (inactive)"}, {"measurement": "AC50", "setting": "[19]", "value": "932 nM (active)"}]}
